Among the data in patent EP4600243A2, “NOVEL BICYCLIC HETEROCYCLYL COMPOUNDS AND USE THEREOF” (Jeil Pharmaceutical Co., Ltd., priority 2022, dated 2024) are inhibition values, retold here.

This test concerns the target T1, protein-protein interaction between SOS1 and KRAS G12C (Homo sapiens, UniProt Q07889).
T1 construct: purchased Cisbio 64KRASG12PEG
T1 sequence (Q07889 1-1333): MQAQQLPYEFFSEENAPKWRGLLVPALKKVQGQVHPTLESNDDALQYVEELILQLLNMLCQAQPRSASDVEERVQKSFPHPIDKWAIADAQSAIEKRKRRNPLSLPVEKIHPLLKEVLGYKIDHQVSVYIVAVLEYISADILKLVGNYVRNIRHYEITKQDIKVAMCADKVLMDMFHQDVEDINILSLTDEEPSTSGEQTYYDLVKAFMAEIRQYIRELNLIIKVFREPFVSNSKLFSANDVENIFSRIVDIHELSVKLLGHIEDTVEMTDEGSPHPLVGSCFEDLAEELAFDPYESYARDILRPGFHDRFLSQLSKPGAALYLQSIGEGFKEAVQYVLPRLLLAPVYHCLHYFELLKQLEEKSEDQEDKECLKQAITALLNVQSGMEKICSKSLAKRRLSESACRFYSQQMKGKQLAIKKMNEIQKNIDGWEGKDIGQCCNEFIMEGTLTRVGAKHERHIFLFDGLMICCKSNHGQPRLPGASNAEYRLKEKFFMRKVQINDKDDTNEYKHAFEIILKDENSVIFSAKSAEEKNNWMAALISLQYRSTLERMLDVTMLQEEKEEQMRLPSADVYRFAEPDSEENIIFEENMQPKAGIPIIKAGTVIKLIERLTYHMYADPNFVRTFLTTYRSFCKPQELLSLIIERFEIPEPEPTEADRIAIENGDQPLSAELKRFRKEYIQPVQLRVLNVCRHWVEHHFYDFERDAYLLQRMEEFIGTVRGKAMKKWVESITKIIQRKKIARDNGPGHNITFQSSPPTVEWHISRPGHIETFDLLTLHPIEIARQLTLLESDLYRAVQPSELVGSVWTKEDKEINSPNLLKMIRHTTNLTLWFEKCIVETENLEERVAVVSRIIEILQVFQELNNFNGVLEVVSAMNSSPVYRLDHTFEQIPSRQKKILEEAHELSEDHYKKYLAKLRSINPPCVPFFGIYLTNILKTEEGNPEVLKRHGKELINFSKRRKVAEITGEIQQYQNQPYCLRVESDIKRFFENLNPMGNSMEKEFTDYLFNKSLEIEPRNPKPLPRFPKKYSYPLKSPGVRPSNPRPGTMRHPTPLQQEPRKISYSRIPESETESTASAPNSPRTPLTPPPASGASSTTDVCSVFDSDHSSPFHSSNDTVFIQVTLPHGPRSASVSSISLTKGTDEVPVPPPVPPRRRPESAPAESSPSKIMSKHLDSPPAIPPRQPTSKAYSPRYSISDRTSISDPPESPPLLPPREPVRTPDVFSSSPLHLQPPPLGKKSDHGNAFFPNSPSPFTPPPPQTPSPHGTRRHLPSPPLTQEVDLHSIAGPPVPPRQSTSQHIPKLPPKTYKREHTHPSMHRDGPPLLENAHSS
Nature of the test: KRAS::SOS1 HTRF binding analysis (KRAS G12C/SOS1 binding kit). Particulars: compound at 0.1 uM. As to the method: 1-1. KRAS::SOS1 HTRF binding analysis
An SOS1 inhibitory ability of the example compounds of the present invention was confirmed by identifying the effect of inhibiting a protein-protein interaction between SOS1 and KRAS G12C of the compounds according to examples of the present invention.
Specifically, a KRAS G12C/SOS1 binding kit (64KRASG12PEG, Cisbio, France) was purchased and used. 2 µℓ of Tag1-KRAS G12C and 2 µℓ of GTP were premixed and dispensed 4 µl each into a 384 well plate (6007290, PerkinElmer, USA). 2 µℓ of the compound and 4 µℓ of Tag2-SOS1 were placed and then 10 µℓ of premixed Anti-Tag1 XL665 antibody and Anti-Tag2 Tb cryptate antibody was dispensed to each well. The plates were sealed and allowed to react at room temperature for one hour and 40 minutes, and then 665 nm wavelength and 620 nm wavelength were measured using a HTRF® compatible reader (Synergy H4, BioTeK, USA), and the ratio of receptor and donor emission signals for each well was calculated as 665 nm/620 nm×10^4.
(+++: more than 70 to 100% inhibition, ++: more than 40 to 70% inhibition, +: 0 to 40% inhibition) [Table 4]
A general note: In TR-FRET formats the signal depends on donor and acceptor labels being close together.
For `C[C@@H](Nc1cnnc2ccc(N3CC[C@H](F)C3)cc12)c1cccc(C(F)F)c1F` [Example 26, N-((R)-1-(3-(difluoromethyl)-2-fluorophenyl)ethyl)-6-((S)-3-fluoropyrrolidin-1-yl)cinnolin-4-amine], the inhibition at 0.1 µM lay within 0 to 40%.

Consider `C[C@@H](Nc1cnnc2ccc(N3CC4(COC4)C3)cc12)c1cccc(C(F)F)c1F` [Example 11, (R)-N-(1-(3-(difluoromethyl)-2-fluorophenyl)ethyl)-6-(2-oxa-6-azaspiro[3.3]heptan-6-yl)cinnolin-4-amine], for which the inhibition at 0.1 µM lay in the range of 0 to 40%.

For the molecule `C[C@@H]1CN(c2ccc3nncc(N[C@H](C)c4cccc(C(F)F)c4F)c3c2)CCO1` [Example 57, N-((R)-1-(3-(difluoromethyl)-2-fluorophenyl)ethyl)-6-((R)-2-methylmorpholino)cinnolin-4-amine], the inhibition at 0.1 µM lay in the range of 0 to 40%.

In the case of `C[C@@H](Nc1cnnc2ccc(NC3CCOCC3)cc12)c1cccc(C(F)F)c1F` [Example 37, (R)-N4-(1-(3-(difluoromethyl)-2-fluorophenyl)ethyl)-N6-(tetrahydro-2H-pyran-4-yl)cinnolin-4,6-diamine], the inhibition at 0.1 µM lay within 0 to 40%.

Consider `C[C@@H](Nc1cnnc2ccc(N3CCN4CCOC[C@@H]4C3)cc12)c1cccc(C(F)F)c1F` [Example 9, N-((R)-1-(3-(difluoromethyl)-2-fluorophenyl)ethyl)-6-((S)-hexahydropyrazino[2,1-c][1,4]oxazin-8(1H)-yl)cinnolin-4-amine], for which the inhibition at 0.1 µM lay in the range of 40 to 70%.

In the case of `Cc1c([C@@H](C)Nc2cnnc3ccc(N4CC5CC(C4)O5)cc23)cccc1C(F)(F)F` [Example 48, 6-(6-oxa-3-azabicyclo[3.1.1]heptan-3-yl)-N-((R)-1-(2-methyl-3-(trifluoromethyl)phenyl)ethyl)cinnolin-4-amine], the inhibition at 0.1 µM is 0 to 40%.

As for `C[C@@H](Nc1cnnc2ccc(N3CC4CC(C3)O4)cc12)c1cccc(C(F)(F)F)c1` [Example 47, 6-(6-oxa-3-azabicyclo[3.1.1]heptan-3-yl)-N-((R)-1-(3-(trifluoromethyl)phenyl)ethyl)cinnolin-4-amine], the inhibition at 0.1 µM lay in the range of 0 to 40%.

Regarding `C[C@@H](Nc1cnnc2ccc(C3=CCOCC3)cc12)c1cccc(C(F)F)c1F` [Example 4, (R)-N-(1-(3-(difluoromethyl)-2-fluorophenyl)ethyl)-6-(3,6-dihydro-2H-pyran-4-yl)cinnolin-4-amine], the inhibition at 0.1 µM lay in the range of 0 to 40%.

As to `C[C@@H](Nc1cnnc2ccc(N3CCC[C@H](O)C3)cc12)c1cccc(C(F)F)c1F` [Example 21, (S)-1-(4-(((R)-1-(3-(difluoromethyl)-2-fluorophenyl)ethyl)amino)cinnolin-6-yl)piperidin-3-ol], the inhibition at 0.1 µM was in the range of 40 to 70%.

`C[C@@H](Nc1cnnc2ccc(N3CC4CC(C3)O4)cc12)c1cccc(C(F)F)c1` [Example 42, 6-(6-oxa-3-azabicyclo[3.1.1]heptan-3-yl)-N-((R)-1-(3-(difluoromethyl)phenyl)ethyl)cinnolin-4-amine]: the inhibition at 0.1 µM was in the range of 0 to 40%.

For `C[C@@H](Nc1cnnc2ccc(N3CCN(C(=O)C4CCOCC4)CC3)cc12)c1cccc(C(F)F)c1F` [Example 63, (R)-(4-(4-(1-(3-(difluoromethyl)-2-fluorophenyl)ethylamino)cinnolin-6-yl)piperazin-1-yl)(tetrahydro-2H-pyran-4-yl)methanone], the inhibition at 0.1 µM lay in the range of 40 to 70%.

For `Cc1c(C#N)cccc1[C@@H](C)Nc1cnnc2ccc(N3CC4CC(C3)O4)cc12` [Example 50, 3-((1R)-1-((6-(6-oxa-3-azabicyclo[3.1.1]heptan-3-yl)cinnolin-4-yl)amino)ethyl)-2-methylbenzonitrile], the inhibition at 0.1 µM was in the range of 0 to 40%.

As for `COC1CC2(C1)CN(c1ccc3nncc(N[C@H](C)c4cccc(C(F)F)c4F)c3c1)C2` [Example 34, (R)-N-(1-(3-(difluoromethyl)-2-fluorophenyl)ethyl)-6-(6-methoxy-2-azaspiro[3.3]heptan-2-yl)cinnolin-4-amine], the inhibition at 0.1 µM was in the range of 0 to 40%.

As to `CC(=O)N1CC=C(c2ccc3nncc(N[C@H](C)c4cccc(C(F)F)c4F)c3c2)CC1` [Example 1, (R)-1-(4-(4-(1-(3-(difluoromethyl)-2-fluorophenyl)ethylamino)cinnolin-6-yl)-5,6-dihydropyridin-1(2H)-yl)ethanone], the inhibition at 0.1 µM lay in the range of 0 to 40%.

Turning to `C[C@@H](Nc1cnnc2ccc(N[C@@H]3CCNC3)cc12)c1cccc(C(F)F)c1F` [Example 39, N4-((R)-1-(3-(difluoromethyl)-2-fluorophenyl)ethyl)-N6-((R)-pyrrolidin-3-yl)cinnolin-4,6-diamine], the inhibition at 0.1 µM fell in the range of 70 to 100%.

For the molecule `Cc1c(C#N)cccc1[C@@H](C)Nc1cnnc2ccc(N3CCC(C)(O)CC3)cc12` [Example 51, (R)-3-(1-((6-(4-hydroxy-4-methylpiperidin-1-yl)cinnolin-4-yl)amino)ethyl)-2-methylbenzonitrile], the inhibition at 0.1 µM was 0 to 40%.

Consider `C[C@@H](Nc1cnnc2ccc(N[C@@H]3CCNC3)cc12)c1cccc(C#N)c1` [Example 54, 3-((R)-1-(6-((R)-pyrrolidin-3-ylamino)cinnolin-4-ylamino)ethyl)benzonitrile], for which the inhibition at 0.1 µM lay within 0 to 40%.

With `C[C@@H](Nc1cnnc2ccc(N3CCC(NC(=O)C4COC4)CC3)cc12)c1cccc(C(F)F)c1F` [Example 69, (R)-N-(1-(4-(1-(3-(difluoromethyl)-2-fluorophenyl)ethylamino)cinnolin-6-yl)piperidin-4-yl)oxetan-3-carboxamide], the inhibition at 0.1 µM lay in the range of 40 to 70%.

Take `C[C@@H](Nc1cnnc2ccc(N3CCC[C@@H](O)C3)cc12)c1cccc(C(F)F)c1F` [Example 20, (R)-1-(4-(((R)-1-(3-(difluoromethyl)-2-fluorophenyl)ethyl)amino)cinnolin-6-yl)piperidin-3-ol]: the inhibition at 0.1 µM lay in the range of 0 to 40%.

As to `C[C@@H](Nc1cnnc2ccc(N3C4CCC3COC4)cc12)c1cccc(C(F)F)c1F` [Example 15, 6-(3-oxa-8-azabicyclo[3.2.1]octan-8-yl)-N-((R)-1-(3-(difluoromethyl)-2-fluorophenyl)ethyl)cinnolin-4-amine], the inhibition at 0.1 µM fell in the range of 0 to 40%.

`C[C@@H](Nc1cnnc2ccc(C3=CCN(C(=O)C4COC4)CC3)cc12)c1cccc(C(F)F)c1F` [Example 60, (R)-(4-(4-(1-(3-(difluoromethyl)-2-fluorophenyl)ethylamino)cinnolin-6-yl)-5,6-dihydropyridin-1(2H)-yl)(oxetan-3-yl)methanone]: the inhibition at 0.1 µM was in the range of 70 to 100%.

Consider `C[C@@H](Nc1cnnc2ccc(N3CCN(C4COC4)CC3)cc12)c1cccc(C(F)F)c1F` [Example 8, (R)-N-(1-(3-(difluoromethyl)-2-fluorophenyl)ethyl)-6-(4-(oxetan-3-yl)piperazin-1-yl)cinnolin-4-amine], for which the inhibition at 0.1 µM lay in the range of 0 to 40%.

`C[C@@H](Nc1cnnc2ccc(N3CCOCC3)cc12)c1cccc(C(F)F)c1F` [Example 10, (R)-N-(1-(3-(difluoromethyl)-2-fluorophenyl)ethyl)-6-morpholinocinnolin-4-amine]: the inhibition at 0.1 µM is 0 to 40%.

In the case of `C[C@@H](Nc1cnnc2ccc(N3CCSCC3)cc12)c1cccc(C(F)F)c1F` [Example 17, (R)-N-(1-(3-(difluoromethyl)-2-fluorophenyl)ethyl)-6-thiomorpholinocinnolin-4-amine], the inhibition at 0.1 µM lay within 0 to 40%.

As a reminder, the inhibition is the percentage by which the read-out fell short of the control.
